In the assay the target is HiBiT tagged Wee1 (Homo sapiens, UniProt P30291). The assay can be described thus: Wee1 protein degradation assay (HiBiT assay). It is filed as cell-based.
[1] abbreviates: engineered HT-1080 cells, 20 hours.
The mark [2] stands for this setting: engineered HT-1080 cells, 20 hours, maximum percentage of Wee1 degradation, read-out: HiBiT Wee1: Dmax.

Read-outs that look alike come from different tables or passages of the source. Where only a bound is given, the exact number is not on record here.

The term DC50 denotes the midpoint of the concentration-degradation curve. A higher DC50 goes with a less potent degrader. As a reminder, the Dmax is the greatest extent of degradation seen.

Sequence of HiBiT tagged Wee1 (P30291 whole entry): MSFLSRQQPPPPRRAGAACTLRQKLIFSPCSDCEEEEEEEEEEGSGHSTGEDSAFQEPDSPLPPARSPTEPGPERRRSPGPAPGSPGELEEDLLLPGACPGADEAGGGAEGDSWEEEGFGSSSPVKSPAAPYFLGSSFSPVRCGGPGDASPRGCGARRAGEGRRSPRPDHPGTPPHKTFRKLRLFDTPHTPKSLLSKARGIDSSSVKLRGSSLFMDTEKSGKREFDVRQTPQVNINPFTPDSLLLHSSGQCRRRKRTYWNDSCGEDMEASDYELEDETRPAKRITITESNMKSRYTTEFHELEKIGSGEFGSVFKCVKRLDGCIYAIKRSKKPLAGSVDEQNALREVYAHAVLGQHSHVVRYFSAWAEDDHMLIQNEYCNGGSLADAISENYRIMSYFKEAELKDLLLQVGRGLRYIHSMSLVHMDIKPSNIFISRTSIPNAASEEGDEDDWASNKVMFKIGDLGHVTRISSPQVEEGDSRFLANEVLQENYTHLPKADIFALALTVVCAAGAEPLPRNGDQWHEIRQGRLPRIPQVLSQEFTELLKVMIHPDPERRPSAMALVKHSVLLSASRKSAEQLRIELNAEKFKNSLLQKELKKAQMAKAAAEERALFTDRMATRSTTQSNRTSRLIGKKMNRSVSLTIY

In the case of `C=CCn1c(=O)c2cnc(Nc3ccc(N4CCC(N5CC6(CN(c7ccc(NC8CCC(=O)NC8=O)cc7F)C6)C5)CC4)cc3)nc2n1-c1ccc2c(n1)[C@@](O)(CC)CC2` (stereo partly drawn) [Compound 154], under setting [1], the DC50 is under 100 nM. Besides, the Dmax under setting [2] is over 75%.

Compound `C=CCn1c(=O)c2cnc(Nc3ccc(N4CCN(CC5CN(c6ccc(NC7CCC(=O)NC7=O)cc6F)C5)CC4)cc3)nc2n1-c1cccc(C(C)(C)O)n1` (stereo not drawn) [Compound 122] displayed a DC50 under setting [1] of under 100 nM. Besides, under setting [2], the Dmax was over 75%.

In turn, `C=CCn1c(=O)c2cnc(Nc3ccc(N4CCN(CCCc5ccc6c(c5)C(=O)N(C5CCC(=O)NC5=O)C6=O)CC4)cc3)nc2n1-c1cccc(C(C)(C)O)n1` (stereo not drawn) [Compound 45] registered a DC50 under setting [1] of under 100 nM. The Dmax under setting [2] was over 75%.

Turning to `C=CCn1c(=O)c2cnc(Nc3ccc4c(c3)CN(CCCCNc3ccc5c(c3)C(=O)N(C3CCC(=O)NC3=O)C5=O)CC4)nc2n1-c1cccc(C(C)(C)O)n1` (stereo not drawn) [Compound 24], the Dmax (HT-1080, read-out: HiBiT Wee1: Dmax) is under 50%. Further, the DC50 under setting [1] is over 1000 nM.

As for `O=C1CCC(N2C(=O)c3ccc(N4CCC(CN5CCc6ccc(Nc7ncc8c(=O)n(-c9c(Cl)cccc9Cl)c9nccn9c8n7)cc6C5)CC4)cc3C2=O)C(=O)N1` (stereo not drawn) [Compound 5], the DC50 under setting [1] was over 1000 nM. Besides, the Dmax under setting [2] was under 50%.

With `C=CCn1c(=O)c2cnc(Nc3ccc(N4CCC(CN5CCN(c6ccc7c(N8CCC(=O)NC8=O)nn(C)c7c6)CC5)CC4)cc3)nc2n1-c1ccc2c(n1)[C@](C)(O)CC2` [Compound 127], the DC50 under setting [1] is under 100 nM. In addition, the Dmax under setting [2] was over 75%.

`C=CCn1c(=O)c2cnc(Nc3ccc(N4CCC(CN5CCN(c6ccc7c(c6)C(=O)N(C6CCC(=O)NC6=O)C7=O)CC5)CC4)cc3)nc2n1-c1cccc(C(C)(C)O)n1` (stereo not drawn) [Compound 56]: the DC50 under setting [1] was under 100 nM. Moreover, the Dmax under setting [2] is 50 to 75%.

`C=CCn1c(=O)c2cnc(Nc3ccc(N4CCC(N5CC[C@@H](c6ccc(NC7CCC(=O)NC7=O)cc6F)C(F)(F)C5)CC4)cc3)nc2n1-c1ccc2c(n1)[C@@](O)(CC)CC2` (single isomer, unassigned) [Compound 184] yielded a 50% degradation concentration (DC50) under setting [1] of under 100 nM. Under setting [2], the Dmax was over 75%.

For the compound `C=CCn1c(=O)c2cnc(Nc3ccc4c(c3)CN(CCCCc3cccc5c3CN(C3CCC(=O)NC3=O)C5=O)CC4)nc2n1-c1cccc(C(C)(C)O)n1` (stereo not drawn) [Compound 49], the DC50 under setting [1] is over 1000 nM. For the same compound, the Dmax under setting [2] was under 50%.

`C=CCn1c(=O)c2cnc(Nc3ccc(N4CCC5(CC4)CCN(C4CN(c6ccc(NC7CCC(=O)NC7=O)cc6F)C4)CC5)cc3)nc2n1-c1ccc2c(n1)[C@@](O)(CC)CC2` (stereo partly drawn) [Compound 171] returned a DC50 under setting [1] of under 100 nM. The greatest degradation seen (Dmax) under setting [2] is over 75%.

`O=C1CCC(N2C(=O)c3ccc(N4CCC(CCN5CCN(c6ccc(Nc7ncc8c(=O)n(-c9c(Cl)cccc9Cl)c9nccn9c8n7)cc6)CC5)CC4)cc3C2=O)C(=O)N1` (stereo not drawn) [Compound 4] yielded a 50% degradation concentration (DC50) under setting [1] of over 1000 nM. In addition, the Dmax under setting [2] was under 50%.

Take `C=CCn1c(=O)c2cnc(Nc3ccc(C4CCN(CC5CCN(c6ccc(NC7CCC(=O)NC7=O)cc6C(F)(F)F)CC5)CC4)cc3)nc2n1-c1cccc(C(C)(C)O)n1` (stereo not drawn) [Compound 107]: the DC50 under setting [1] is under 100 nM. The Dmax under setting [2] was over 75%.

Under setting [1], `Cc1cc(Nc2ncc3c(n2)N(C)CN(c2c(Cl)cccc2Cl)C3=O)ccc1N1CCC(CN2CC3(C2)CN(c2ccc4c(c2)C(=O)N(C2CCC(=O)NC2=O)C4=O)C3)CC1` (stereo not drawn) [Compound 32] registered a DC50 of 100 to 1000 nM. Also, the Dmax under setting [2] was 50 to 75%.

`C=CCn1c(=O)c2cnc(Nc3ccc(C4CCN(C5CCN(c6ccc7c(c6)C(=O)N(C6CCC(=O)NC6=O)C7=O)CC5)CC4)cc3)nc2n1-c1ccc2c(n1)[C@@](O)(CC)CC2` (stereo partly drawn) [Compound 75] came in with a DC50 under setting [1] of under 100 nM. Also, the Dmax under setting [2] was 50 to 75%.

`C=CCn1c(=O)c2cnc(Nc3ccc(N4CC(N5CC6(CCN(c7ccc(NC8CCC(=O)NC8=O)cc7F)CC6)C5)C4)cc3)nc2n1-c1ccc2c(n1)[C@@](O)(CC)CC2` (stereo partly drawn) [Compound 172] came in with a DC50 under setting [1] of under 100 nM. For the same compound, under setting [2], the greatest degradation seen (Dmax) is 50 to 75%.

The values above are taken from patent US20250049798A1, “WEE1 PROTEIN KINASE DEGRADATION AGENT AND USE THEREOF” (HANGZHOU GLUBIO PHARMACEUTICAL CO. LTD., priority 2021, published 2025).
